This note sets out measurements from PubChem BioAssay (NCI).

Holding throughout (test): NCI tumour cell line growth inhibition, 48 h
Assay [1] concerns A498 renal.
For assay [2], the system named is DU-145 prostate.
Assay [3] has as its system HCT-15 colon.
The subject of assay [4] is K-562 leukemia.
Assay [5] deals with M14 melanoma.
The test system of assay [6] is MDA-MB-231 breast.
For assay [7], the system named is RPMI-8226 leukemia.
Assay [8] has as its system UO-31 renal.

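Step 1: Grow cells in 96-well plates. Step 2: Expose to compound for 48 hours at 5 concentrations. Step 3: Interpolate endpoints linearly; if unreached, use highest concentration. GI50 marks 50% less growth. TGI: total growth inhibition.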 *1 amine or outer side, *2 acyl side, *3 side chain or, on linkers, in order; H or OH if unused. Where a SMILES comes first, the peptide text is derived from it. Bridges are numbered along the chain shown (N, C = ends). Roman numbers before positions name the chains, in order. [ ]: non-standard residue; d: D form. Actinocin(9to1) = Cc1c2oc3c(C)ccc(C(=O)[*:1])c3nc-2c(C(=O)[*:2])c(N)c1=O; NMeV = CN[CH](C(=O)O)C(C)C; Sar = CNCC(=O)O Bounds are passed on as bounds.

With `O=C(O)/C=C/c1ccc[c]([Sb](=[O])([OH])[OH])c1`, the GI50 in assay [1], in assay [2], in assay [3], in assay [4], in assay [5] and in assay [6] was over 100 µM in each case. The GI50 in assay [7] and in assay [8] was over 100 µM throughout. The TGI in assay [1], in assay [2], in assay [3], in assay [4], in assay [5] and in assay [6] was over 100 µM throughout. Besides, the TGI in assay [7] and in assay [8] was over 100 µM throughout.

For the molecule `COc1ccc(-c2nsc3c2NC(=O)CC3c2ccc3c(c2)OCCO3)cc1` (configuration not stated), the GI50 was 0.212 µM in assay [1]; 1.07 µM in assay [2]; 0.504 µM in assay [3]; 0.367 µM in assay [4]; 0.397 µM in assay [5]; 1.59 µM in assay [6]. For the same molecule, the figures for the GI50 in assay [7] and in assay [8] were 0.492 µM and 2.19 µM, respectively. The TGI in assay [1] was 1.03 µM; in assay [2], over 21.6 µM; in assay [3] it was over 100 µM; in assay [4] it was over 100 µM; in assay [5], over 100 µM; in assay [6], over 100 µM. Further, the TGI in assay [7] is 42.4 µM; in assay [8], over 100 µM.

In the case of `COc1cccc(Sc2ccc([N+](=O)[O-])c3no[n+]([O-])c23)c1`, the GI50 in assay [1] is 15.7 µM; in assay [2], 11.3 µM; in assay [3], 7.82 µM; in assay [4], 3.66 µM; in assay [5], 14.3 µM; in assay [6] it was 11.2 µM. The GI50 in assay [7] is 3.67 µM; in assay [8], 2.27 µM. Further, the TGI was found to be 34.6 µM in assay [1]; 24.4 µM in assay [2]; 23.1 µM in assay [3]; 13 µM in assay [4]; 33.9 µM in assay [5]; 28 µM in assay [6]. The values for the TGI in assay [7] and in assay [8] were 21 µM and 7.74 µM, respectively.

As for `C=C1C(=O)O[C@H]2[C@H]1CC/C(COC(=O)c1cn(C)c3ccccc13)=C\CC[C@@]1(C)O[C@@H]21`, the GI50 was 1.59 µM in assay [1]; 1.01 µM in assay [2]; 0.539 µM in assay [3]; 0.4 µM in assay [4]; 1.41 µM in assay [5]; 1.05 µM in assay [6]. For the same molecule, the GI50 in assay [7] is 0.217 µM; in assay [8] it was 0.775 µM. Further, the TGI in assay [1] was found to be 3.05 µM; in assay [2], 2.2 µM; in assay [3], 2.26 µM; in assay [4], 5.13 µM; in assay [5], 3.3 µM; in assay [6], 2.47 µM. Moreover, the TGI in assay [7] amounted to 0.665 µM; in assay [8] it was 2.1 µM.

For `Cc1c2oc3c(C)ccc(C(=O)OC(C)C4NC(=O)C(C(C)C)N(C)C(=O)CN(C)C(=O)C5CCCN5C(=O)C(C(C)C)NC4=O)c3nc-2c(C(=O)OC(C)C2NC(=O)C(C(C)C)N(C)C(=O)CN(C)C(=O)C3CCCN3C(=O)C(C(C)C)NC2=O)c(N)c1=O` (configuration not stated) (I: cyclo([Sar][NMeV]TVP) / II: cyclo([Sar][NMeV]TVP); linker I:3-II:3 via Actinocin(9to1); configuration not given here), the GI50 in assay [1] is under 0.0107 µM; in assay [2] it was under 0.0107 µM; in assay [3], 0.0396 µM; in assay [4] it was under 0.01 µM; in assay [5], 0.0117 µM; in assay [6], 0.0152 µM. Further, the GI50 was under 0.01 µM in assay [7] and 0.0302 µM in assay [8]. Moreover, the TGI in assay [1] is 0.0294 µM; in assay [2], over 30.7 µM; in assay [3], over 100 µM; in assay [4], over 100 µM; in assay [5] it was 0.0517 µM; in assay [7] it was 0.0582 µM. Further, the TGI in assay [8] stood at 0.206 µM.

In the case of `c1ccc2cc(Cn3cc[n+](Cc4ccc5ccccc5c4)c3)ccc2c1`, the GI50 is 0.0254 µM in assay [1]; 2.83 µM in assay [2]; 14.9 µM in assay [3]; 1.02 µM in assay [4]; 1.43 µM in assay [5]; 0.729 µM in assay [6]. In addition, the figures for the GI50 in assay [7] and in assay [8] were 0.348 µM and 12.1 µM, respectively. For the same molecule, the TGI in assay [1] turned out to be 4.69 µM; in assay [2], 14.7 µM; in assay [3], 29.5 µM; in assay [4], 14.5 µM; in assay [5], 8.34 µM; in assay [6] it was 2.53 µM. In addition, the TGI in assay [7] was found to be 1.97 µM; in assay [8] it was 28.8 µM.

Consider `O=C1OCC(c2ccc(O)cc2)=C1c1cc(O)c(O)c(O)c1`, for which the GI50 in assay [1] is over 100 µM; in assay [2], over 100 µM; in assay [3], over 100 µM; in assay [4], 82.2 µM; in assay [5], over 100 µM; in assay [6], over 100 µM. In addition, the GI50 in assay [7] was 44.1 µM; in assay [8] it was over 100 µM. Further, the TGI in assay [1], in assay [2], in assay [3], in assay [4], in assay [5] and in assay [6] was over 100 µM each time. Besides, the TGI in assay [7] and in assay [8] was over 100 µM throughout.

`CCN1C(=O)N(CC)C2C1NN=c1s/c(=C\c3cccs3)c(=O)n12` (configuration not stated): the GI50 in assay [1] is 0.021 µM; in assay [2] it was 0.281 µM; in assay [3], 0.0575 µM; in assay [4] it was 0.0551 µM; in assay [5], 0.105 µM; in assay [6], 0.468 µM. The values for the GI50 in assay [7] and in assay [8] were 0.412 µM and 0.594 µM, respectively. Besides, the TGI is 0.0813 µM in assay [1]; over 29.9 µM in assay [2]; over 100 µM in assay [3]; over 100 µM in assay [4]; over 100 µM in assay [5]; over 100 µM in assay [6]. The TGI in assay [7] and in assay [8] was over 100 µM throughout.
